Experimental data: patent US10316056B2, “Chemical compounds and use thereof for improving muscular quality” (BIOPHYTIS, priority 2014, dated 2019)

Test system: myostatin gene expression in C2C12 cells
Assay: Inhibition of myostatin expression in C2C12 cells (qPCR)
Format: cell-based
Conditions: Mus musculus, percentage myostatin gene expression in cells in contact with the compounds related to control cells, C2C12, 6 h
Experimental: After several experiments in which the C2C12 cells differentiated into myotubes were incubated in the presence of IGF-1 or 20E for 2 h 30 or 6 h, two screening tests were developed. Thus, the phosphorylation of the S6 protein kinase and the expression of the myostatin gene were studied in order to determine their modulation by a growth hormone or an ecdysone and to characterize these modulations from a statistical point of view. The C2C12 myoblast cells (ATCC CRL-1772) are seeded into 24-well plates at a density of 30 000 cells per well and cultured in a DMEM medium containing glucose in a proportion of 4.5 g/l and supplemented with fetal calf serum (10%) and with antibiotics (penicillin and streptomycin). Forty-eight hours later, the myoblasts are induced to differentiate by partial serum depletion (2% instead of 10%) for 5 days. The cells are then placed in a medium which is glucose-depleted (DMEM containing 1 g/l of glucose) and serum-free in the presence of the test molecules or of the references (100 ng/ml IGF-1 or 10 μ[…]) for 6 h. At the end of the experiment, the messenger RNAs (mRNAs) are extracted using the conventional methodology based on phenol and chloroform. Briefly, the cells are lysed in a Trizol solution (Sigma T9424) containing a strong acid and phenol. The mRNAs are separated from the proteins by addition of chloroform and then centrifugation. They are then precipitated from isopropanol and then suspended at a concentration of 1 μg/μl in an […] ultrapure water. 1 μg of mRNA is then converted by reverse transcription into complementary DNA by the AMV enzyme in the presence of a primer and of a mixture of nucleotides according to the protocol given by the supplier (Applied Biosystems 4368814). […] The qPCRs are carried out on a 7900HT Fast real-Time PCR detection system (Applied Biosystems). The programming conditions are standard and consist of 1 cycle at 95° C. for 15 min, followed by 40 cycles at 95° C. for 15 s and at 60° C. for 1 min and the program ends with a melt curve step between 60° C. and 95° C. […] Fluorescent probes bind to the double-stranded DNA and are fluorescent only once bound to the DNA. A fluorescence threshold is established by the machine's program. When the amount of DNA allows the fluorescent probe to exceed this threshold, a PCR cycle number, called “Ct” for “Cycle Threshold”, is obtained. It is this value which forms the basis of the calculations to quantify the DNA relatively. A ratio R is established between the amount of starting DNA of a sample and that of a control, which has not undergone treatment (i.e. […] R=2^-ΔΔCt).

CC(=NOCC(=O)O)[C@H]1CCC2C3=CC(=O)[C@@H]4C[C@@H](O)[C@@H](O)C[C@]4(C)C3CC[C@@]21C (stereo partly drawn) [Compound 4, 2-[1-[(2S,3R,5R,10R,13S,17S)-2,3-dihydroxy-10,13-dimethyl-6-oxo-1,2,3,4,5,9,11,12,14,15,16,17-dodecahydrocyclopenta[a]phenanthren-17-yl]ethylideneamino]oxyacetic acid] and CCON=C(C)[C@H]1CCC2C3=CC(=O)[C@@H]4C[C@@H](O)[C@@H](O)C[C@]4(C)C3CC[C@@]21C (stereo partly drawn) [Compound 5, (2S,3R,5R,10R,13S,17S)-17-(N-ethoxy-C-methylcarbonimidoyl)-2,3-dihydroxy-10,13-dimethyl-1,2,3,4,5,9,11,12,14,15,16,17-dodecahydrocyclopenta[a]phenanthren-6-one] cannot be ordered by mrna remaining at 10 µM: less than 70% for the first, less than 70% for the second.

CO/N=C1/C=C2C3=CC[C@H](C(C)=NO)[C@@]3(C)CCC2[C@@]2(C)C[C@H](O)[C@H](O)C[C@@H]12 (stereo partly drawn) [Compound 7, 1-[(2S,3R,5R,6Z,10R,13R,17S)-2,3-dihydroxy-6-methoxyimino-10,13-dimethyl-1,2,3,4,5,9,11,12,16,17-decahydrocyclopenta[a]phenanthren-17-yl]ethanone oxime] and C/C(=N/OCCOc1ccccc1)[C@H]1CC=C2C3=CC(=O)[C@@H]4C[C@@H](O)[C@@H](O)C[C@]4(C)C3CC[C@@]21C (stereo partly drawn) [Compound 33, (2S,3R,5R,10R,13R,17S)-2,3-dihydroxy-10,13-dimethyl-17-(C-methyl-N-(2-phenoxyethoxy)carbonimidoyl)-1,2,3,4,5,9,11,12,16,17-decahydrocyclopenta[a]phenanthren-6-one] cannot be ordered by mrna remaining at 10 µM: less than 70% for the first, less than 70% for the second.

Compared with COCCON=C(C)[C@H]1CC[C@@]2(O)C3=C/C(=N\OC)[C@@H]4C[C@@H](O)[C@@H](O)C[C@]4(C)C3CC[C@]12C (stereo partly drawn) [Compound 19, (2S,3R,5R,6E,10R,13R,14S,17S)-17-(N-(2-methoxyethoxy)-C-methylcarbonimidoyl)-6-methoxyimino-10,13-dimethyl-2,3,4,5,9,11,12,15,16,17-decahydro-1H-cyclopenta[a]phenanthrene-2,3,14-triol], COCCO/N=C(/C)[C@H]1CC[C@@]2(O)C3=CC(=O)[C@@H]4C[C@@H](O)[C@@H](O)C[C@]4(C)C3CC[C@]12C (stereo partly drawn) [Compound 29, (2S,3R,5R,10R,13R,14S,17S)-2,3,14-trihydroxy-17-(N-(2-methoxyethoxy)-C-methylcarbonimidoyl)-10,13-dimethyl-2,3,4,5,9,11,12,15,16,17-decahydro-1H-cyclopenta[a]phenanthren-6-one] is lower in mrna remaining at 10 µM: 71 to 85% for the first, less than 70% for the second.

Compared with CC(C)=CCON=C(C)[C@H]1CC[C@@]2(O)C3=C/C(=N\O)[C@@H]4C[C@@H](O)[C@@H](O)C[C@]4(C)C3CC[C@]12C (stereo partly drawn) [Compound 21, (2S,3R,5R,10R,13R,14S,17S)-2,3,14-trihydroxy-10,13-dimethyl-17-(C-methyl-N-(3-methylbut-2-enoxy)carbonimidoyl)-2,3,4,5,9,11,12,15,16,17-decahydro-1H-cyclopenta[a]phenanthren-6-one oxime], CC(C)=CCO/N=C(/C)[C@H]1CC[C@@]2(O)C3=CC(=O)[C@@H]4C[C@@H](O)[C@@H](O)C[C@]4(C)C3CC[C@]12C (stereo partly drawn) [Compound 30, (2S,3R,5R,10R,13R,14S,17S)-2,3,14-trihydroxy-10,13-dimethyl-17-(C-methyl-N-(3-methylbut-2-enoxy)carbonimidoyl)-2,3,4,5,9,11,12,15,16,17-decahydro-1H-cyclopenta[a]phenanthren-6-one] is higher in mrna remaining at 10 µM: less than 70% for the first, 71 to 85% for the second.

First: CCO/N=C(/C)[C@H]1CC[C@@]2(O)C3=CC(=O)[C@@H]4C[C@@H](O)[C@@H](O)C[C@]4(C)C3CC[C@]12C (stereo partly drawn) [Compound 23, (2S,3R,5R,10R,13R,14S,17S)-17-(N-ethoxy-C-methylcarbonimidoyl)-2,3,14-trihydroxy-10,13-dimethyl-2,3,4,5,9,11,12,15,16,17-decahydro-1H-cyclopenta[a]phenanthren-6-one]
Second: CO/N=C(/C)[C@H]1CC[C@@]2(O)C3=CC(=O)[C@@H]4C[C@@H](O)[C@@H](O)C[C@]4(C)C3CC[C@]12C (stereo partly drawn) [Compound 25, (2S,3R,5R,10R,13R,14S,17S)-17-(N-methoxy-C-methylcarbonimidoyl)-2,3,14-trihydroxy-10,13-dimethyl-2,3,4,5,9,11,12,15,16,17-decahydro-1H-cyclopenta[a]phenanthren-6-one]
The mrna remaining at 10 µM of the first is higher: 71 to 85% for the first, less than 70% for the second.

First: C/C(=N/OCCOc1ccccc1)[C@H]1CC[C@@]2(O)C3=CC(=O)[C@@H]4C[C@@H](O)[C@@H](O)C[C@]4(C)C3CC[C@]12C (stereo partly drawn) [Compound 27, (2S,3R,5R,10R,13R,14S,17S)-2,3,14-trihydroxy-10,13-dimethyl-17-(C-methyl-N-(2-phenoxyethoxy)carbonimidoyl)-2,3,4,5,9,11,12,15,16,17-decahydro-1H-cyclopenta[a]phenanthren-6-one]
Second: C/C(=N/OCCN(C)C)[C@H]1CC[C@@]2(O)C3=CC(=O)[C@@H]4C[C@@H](O)[C@@H](O)C[C@]4(C)C3CC[C@]12C (stereo partly drawn) [Compound 35, (2S,3R,5R,10R,13R,14S,17S)-17-(N-(2-dimethylaminoethoxy)-C-methylcarbonimidoyl)-2,3,14-trihydroxy-10,13-dimethyl-2,3,4,5,9,11,12,15,16,17-decahydro-1H-cyclopenta[a]phenanthren-6-one]
The mrna remaining at 10 µM of the first is lower: less than 70% for the first, 71 to 85% for the second.

Compared with C/C(=N/OCCN1CCCC1)[C@H]1CC[C@@]2(O)C3=CC(=O)[C@@H]4C[C@@H](O)[C@@H](O)C[C@]4(C)C3CC[C@]12C (stereo partly drawn) [Compound 36, (2S,3R,5R,10R,13R,14S,17S)-2,3,14-trihydroxy-10,13-dimethyl-17-(C-methyl-N-(2-pyrrolidin-1-ylethoxy)carbonimidoyl)-2,3,4,5,9,11,12,15,16,17-decahydro-1H-cyclopenta[a]phenanthren-6-one], CC([C@H]1CC[C@@]2(O)C3=CC(=O)[C@@H]4C[C@@H](O)[C@@H](O)C[C@]4(C)C3CC[C@]12C)N(CC1CCCO1)C(=O)C1CC1 (stereo partly drawn) [Compound 47, N-(tetrahydrofuran-2-ylmethyl)-N-[1-[(2S,3R,5R,10R,13R,14S,17S)-2,3,14-trihydroxy-10,13-dimethyl-6-oxo-2,3,4,5,9,11,12,15,16,17-decahydro-1H-cyclopenta[a]phenanthren-17-yl]ethyl]cyclopropanecarboxamide] is lower in mrna remaining at 10 µM: 71 to 85% for the first, less than 70% for the second.

First: CO/N=C1\C=C2C(CC[C@]3(C)[C@@H](C(C)N(CC(F)F)C(=O)c4ccco4)CC[C@@]23O)[C@@]2(C)C[C@H](O)[C@H](O)C[C@@H]12 (stereo partly drawn) [Compound 37, N-(2,2-difluoroethyl)-N-[1-[(2S,3R,5R,6E,10R,13R,14S,17S)-2,3,14-trihydroxy-6-methoxyimino-10,13-dimethyl-2,3,4,5,9,11,12,15,16,17-decahydro-1H-cyclopenta[a]phenanthren-17-yl]ethyl]furan-2-carboxamide]
Second: CO/N=C1\C=C2C(CC[C@]3(C)[C@@H](C(C)N(CC(OC)OC)C(=O)C(C)C)CC[C@@]23O)[C@@]2(C)C[C@H](O)[C@H](O)C[C@@H]12 (stereo partly drawn) [Compound 38, N-(2,2-dimethoxyethyl)-2-methyl-N-[1-[(2S,3R,5R,6E,10R,13R,14S,17S)-2,3,14-trihydroxy-6-methoxyimino-10,13-dimethyl-2,3,4,5,9,11,12,15,16,17-decahydro-1H-cyclopenta[a]phenanthren-17-yl]ethyl]propanamide]
The mrna remaining at 10 µM of the first is higher: 71 to 85% for the first, less than 70% for the second.

First: C=CC(=O)N(CC1CCCO1)C(C)[C@H]1CC[C@@]2(O)C3=CC(=O)[C@@H]4C[C@@H](O)[C@@H](O)C[C@]4(C)C3CC[C@]12C (stereo partly drawn) [Compound 48, N-(tetrahydrofuran-2-ylmethyl)-N-[1-[(2S,3R,5R,10R,13R,14S,17S)-2,3,14-trihydroxy-10,13-dimethyl-6-oxo-2,3,4,5,9,11,12,15,16,17-decahydro-1H-cyclopenta[a]phenanthren-17-yl]ethyl]prop-2-enamide]
Second: COCCN(C(=O)c1cccs1)C(C)[C@H]1CC[C@@]2(O)C3=CC(=O)[C@@H]4C[C@@H](O)[C@@H](O)C[C@]4(C)C3CC[C@]12C (stereo partly drawn) [Compound 53, N-(2-methoxyethyl)-N-[1-[(2S,3R,5R,10R,13R,14S,17S)-2,3,14-trihydroxy-10,13-dimethyl-6-oxo-2,3,4,5,9,11,12,15,16,17-decahydro-1H-cyclopenta[a]phenanthren-17-yl]ethyl]thiophene-2-carboxamide]
The mrna remaining at 10 µM of the first is higher: 71 to 85% for the first, less than 70% for the second.
